Experimental data published in publication PMC9775191, “A Subset Screen of the Compounds Australia Scaffold Library Identifies 7-Acylaminodibenzoxazepinones as Potent and Selective Hits for Anti-Giardia Drug Discovery” (Biomedicines, 2022).

What follows are molecules tested on G. duodenalis BRIS/91/HEPU/1279 (assay: Primary Giardia screen at 10 µM (live-cell imaging, automated counting)). Settings: 24 h.
Assay type: cell-based, Giardia duodenalis
In short: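 One concentration, 10 μM, is screened per compound in singlicate under microaerophilic gas (3% O2, 5% CO2, N2). Inhibition comes from automated image-based counts at 24 and 48 h, relative to 0.2% DMSO controls.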

Point of comparison: `COc1ccc(Cl)cc1NC(=O)Nc1ccc2c(c1)CN(Cc1ccccc1)C2` [SN00796317], “Average % Inhibition 24h” value 8.8%. Against it:
- Cn1nc(-c2nnc(-c3ccccc3Cl)o2)c2c1CCN(C(=O)c1ccc(F)c(F)c1)C2 [SN00796834] — lower, 6.4%

Same assay, conditions: 24 h, first singlicate assay

Point of comparison: `Cn1nc(-c2nnc(-c3ccccc3Cl)o2)c2c1CCN(C(=O)c1ccc(F)c(F)c1)C2` [SN00796834], “% Inhibition n=1 24h” value 12.9%. Against it:
- COc1ccc(Cl)cc1NC(=O)Nc1ccc2c(c1)CN(Cc1ccccc1)C2 [SN00796317] — higher, 17.7%

Same assay, conditions: 24 h, re-assessment

Point of comparison: `Cn1nc(-c2nnc(-c3ccccc3Cl)o2)c2c1CCN(C(=O)c1ccc(F)c(F)c1)C2` [SN00796834], “% Inhibition n=2 24h” value 0.0%. Against it:
- COc1ccc(Cl)cc1NC(=O)Nc1ccc2c(c1)CN(Cc1ccccc1)C2 [SN00796317] — the same, 0.0%

Same assay, conditions: 48 h

Point of comparison: `Cn1nc(-c2nnc(-c3ccccc3Cl)o2)c2c1CCN(C(=O)c1ccc(F)c(F)c1)C2` [SN00796834], “Average % Inhibition 48h” value 12.8%. Against it:
- COc1ccc(Cl)cc1NC(=O)Nc1ccc2c(c1)CN(Cc1ccccc1)C2 [SN00796317] — higher, 37.5%

Same assay, conditions: 48 h, first singlicate assay

Point of comparison: `CCCCOc1ccc(CNC(=O)C2CCN(c3nccc4sc(C)cc34)CC2)cc1` [SN00797785], “% Inhibition n=1 48h” value 27.9%. Against it:
- Cc1sc2cc(-c3ccccc3)oc2c1C(=O)NCc1ccccc1 [SN00796296] — lower, 20.2%
- COc1ccc(CNC(=O)c2c(C)sc3cc(-c4ccccc4)oc23)cc1 [SN00796298] — higher, 29.4%
- COc1ccc(Cl)cc1NC(=O)Nc1ccc2c(c1)CN(Cc1ccccc1)C2 [SN00796317] — higher, 57.6%
- Cc1ccc(NC(=O)Nc2ccc3c(c2)CN(Cc2ccccc2)C3)c(C)c1 [SN00796327] — higher, 41.2%
- O=C(c1nnn(-c2ccccc2Cl)c1-c1ccncc1)N1CCc2ccccc2C1 [SN00796355] — higher, 30.9%
- O=C(NCC1CC1)c1nnn(-c2ccccc2)c1-c1ccncc1 [SN00796358] — lower, 0.0%
- CCOC(=O)N1CCN(c2cc(-c3nc(-c4cccc(OC)c4OC)no3)c3ccccc3n2)CC1 [SN00796395] — lower, 18.1%
- COc1cccc(-c2noc(-c3cc(N4CCN(C(C)=O)CC4)nc4ccccc34)n2)c1OC [SN00796396] — lower, 7.7%
- CC(C)C(=O)N1CCc2c(c(COCc3ccccc3F)nn2C)C1 [SN00796410] — lower, 0.0%
- COCC(=O)N1CCc2c(c(COCc3ccc(C)cc3)nn2C)C1 [SN00796424] — lower, 0.0%
- Cc1ccc(COCc2nn(C)c3c2CN(C(=O)Nc2ccccc2)CC3)cc1 [SN00796435] — lower, 0.0%
- Cc1ccc(COCc2nn(C)c3c2CN(S(=O)(=O)c2ccc(F)c(C)c2)CC3)cc1 [SN00796451] — lower, 2.1%
- CCc1nc(N2CCCC2=O)sc1C(=O)Nc1ccc(C)c(C)c1 [SN00796500] — lower, 0.0%
- Cc1ccc(-c2nc(C(=O)N3CCN(c4ccc(Cl)cc4)CC3)cs2)s1 [SN00796526] — lower, 7.8%
- O=C(c1nnn(-c2ccc(Cl)cc2)c1-c1cccnc1)N1CCCCC1 [SN00796543] — lower, 20.4%
- Cc1ccc(CNC(=O)c2ccc(-n3cnc(NC(=O)C(C)C)c3)cc2)cc1 [SN00796570] — higher, 29.7%
- Cc1ccc2oc(-c3noc(C4CC(=O)N(c5ccccc5)C4)n3)c(C)c2c1 (stereo not shown) [SN00796597] — lower, 2.9%
- COc1ccc2oc(-c3noc(C(NC(=O)c4ccco4)C(C)C)n3)c(C)c2c1 (stereo not shown) [SN00796606] — lower, 9.9%
- Cc1ccc(-c2noc(-c3ccc(N4CCN(Cc5ccc6c(c5)OCO6)CC4)nc3)n2)cc1 [SN00796635] — lower, 7.2%
- CCN1CCN(c2ccc(-c3nc(-c4cccc(F)c4)no3)cn2)CC1 [SN00796649] — higher, 48.2%
- CCc1ccc(NC(=O)N2CCc3c(c(-c4nc(C)no4)nn3C)C2)cc1 [SN00796748] — lower, 19.4%
- Cc1noc(-c2nn(C)c3c2CN(S(=O)(=O)Cc2cccc(F)c2)CC3)n1 [SN00796798] — lower, 14.3%
- Cn1nc(-c2nnc(-c3ccccc3Cl)o2)c2c1CCN(C(=O)c1ccc(F)c(F)c1)C2 [SN00796834] — lower, 25.5%
- CCCS(=O)(=O)N1CCc2c(c(-c3nnc(-c4ccc(F)cc4)o3)nn2C)C1 [SN00796867] — lower, 0.0%
- COc1ccc(S(=O)(=O)N(C)c2ccsc2C(=O)NCCC(C)C)cc1 [SN00797030] — lower, 10.4%
- Cc1ccc(S(=O)(=O)N(C)c2ccsc2C(=O)Nc2ccc(C)c(C)c2)cc1 [SN00797041] — lower, 12.0%
- Cc1ccc(NC(=O)Cn2c(=O)nc(NC3CCCC3)c3ccccc32)cc1C [SN00797075] — lower, 0.0%
- O=C(NCc1cccc(C(F)(F)F)c1)C1CCCN(c2nccnc2Oc2ccccc2)C1 (stereo not shown) [SN00797123] — lower, 15.6%
- CCC(=O)Nc1cccc(-c2noc(C3CCCN(C(=O)c4ccc(C)c(F)c4)C3)n2)c1 (stereo not shown) [SN00797220] — lower, 14.6%
- Cc1nc(-c2cc(S(=O)(=O)N3CCCCCC3)c(C)s2)sc1C [SN00797236] — lower, 11.8%
- CCN(c1cccc(C)c1)S(=O)(=O)c1cc(-c2nc(C)c(C)s2)sc1C [SN00797239] — lower, 10.7%
- Cc1cc(-c2csc(S(=O)(=O)Nc3ccc(Cl)c(C(F)(F)F)c3)c2)on1 [SN00797257] — lower, 0.0%
- CCCn1nccc1-c1csc(S(=O)(=O)NC(C)C)c1 [SN00797311] — lower, 9.7%
- Cc1cccc(CC(=O)N2CCN(c3nc4cccnc4n(Cc4ccccc4)c3=O)CC2)c1 [SN00797319] — higher, 38.8%
- C=CCn1c(=O)c(N2CCC(NC(=O)NC3CCCC3)CC2)nc2cccnc21 [SN00797341] — lower, 6.8%
- COc1ccc(-c2nc(Cn3nnc(C(=O)Nc4ccc(F)cc4F)c3N)c(C)o2)c(OC)c1 [SN00797364] — lower, 3.5%
- CC1CCC(NC(=O)c2ccc(-c3noc(C4CCN(C(=O)c5ccccc5)CC4)n3)cc2)CC1 (stereo not shown) [SN00797379] — lower, 0.0%
- COc1ccc(CNC(=O)c2ccc(-c3noc(C4CCCN(C(=O)c5ccccc5)C4)n3)cc2)cc1 (stereo not shown) [SN00797402] — lower, 14.7%
- Cc1ccc(NC(=O)c2ccc(-c3noc(C4CCCN(C(=O)c5ccccc5)C4)n3)cc2)cc1 (stereo not shown) [SN00797407] — lower, 5.6%
- Cc1ccc(N2CC(C(=O)N3CCCC3c3nc(-c4cccc(C)c4)no3)CC2=O)cc1 (stereo not shown) [SN00797413] — lower, 0.0%
- Cc1ccc(C(=O)N2CCCC2c2nc(-c3cccc(C)c3)no2)cc1 (stereo not shown) [SN00797416] — lower, 0.0%
- O=C(NCCc1ccccc1)N1CCCC1c1nc(-c2ccccc2)no1 (stereo not shown) [SN00797440] — lower, 0.0%
- Cc1cccc(-c2noc(C3CCCN3S(=O)(=O)c3ccc(C(C)(C)C)cc3)n2)c1 (stereo not shown) [SN00797487] — lower, 0.0%
- Cc1cccc(-c2noc(C3CCCN3S(=O)(=O)c3cc(C)c(C)cc3C)n2)c1 (stereo not shown) [SN00797488] — lower, 0.0%
- CCCNC(=O)Cn1cccc1-c1nc(-c2ccc(Cl)cc2)cs1 [SN00797520] — lower, 24.8%
- COc1ccc(CNS(=O)(=O)c2ccc3onc(C(=O)N4CCCCC4)c3c2)cc1OC [SN00797555] — lower, 0.0%
- COc1ccc(OC)c(NC(=O)C2CC(=O)N(c3cccc(NC(C)=O)c3)C2)c1 (stereo not shown) [SN00797576] — lower, 0.0%
- O=C(Nc1ccc2sc(NS(=O)(=O)c3ccccc3)nc2c1)Nc1ccccc1Cl [SN00797595] — lower, 4.6%
- O=C(NCC1CCCO1)Nc1ccc2sc(NS(=O)(=O)c3ccccc3)nc2c1 (stereo not shown) [SN00797600] — lower, 23.5%
- COc1ccc(CNC(=O)c2sc(Nc3ccc(F)cn3)nc2C)cc1 [SN00797617] — lower, 12.4%
- Cc1ccnc(Nc2nc(C)c(C(=O)NC3CC3)s2)c1 [SN00797622] — lower, 13.3%
- COc1ccc(CCNS(=O)(=O)c2cccc(-c3nc(-c4ccc(C)cc4)no3)c2)cc1OC [SN00797669] — lower, 6.7%
- Cc1ccc(-c2noc(-c3cccc(S(=O)(=O)N4CCN(c5ccc(F)cc5)CC4)c3)n2)cc1 [SN00797676] — lower, 0.0%
- Cc1ccc(-c2nnc(-c3cccnc3N3CCCC3)o2)cc1 [SN00797693] — lower, 0.0%
- COc1ccc(-c2nnc(-c3cccnc3N3CCN(C(=O)c4cccc(OC)c4)CC3)o2)cc1 [SN00797707] — lower, 2.3%
- CCCOc1ccc(-c2noc(Cc3nc(-c4cccc(OC)c4)cs3)n2)cc1 [SN00797723] — lower, 4.6%
- COc1ccc2cc(-c3csc(Cc4nc(-c5ccccn5)no4)n3)c(=O)oc2c1 [SN00797738] — lower, 2.5%
- NC(=O)C1CCN(C(=O)c2snc(C(=O)NCc3ccccc3)c2N)CC1 [SN00797750] — lower, 8.9%
- COc1cccc(CNC(=O)c2nsc(C(=O)NCc3ccccc3F)c2N)c1 [SN00797759] — lower, 13.9%
- Cn1ccc2c(cc(C(=O)N3CCC(N4CCCCC4)CC3)n2C)c1=O [SN00797819] — lower, 18.7%
- Cc1ccc(NC(=O)c2cc3c(=O)n(CC(C)C)ccc3n2C)cc1 [SN00797828] — lower, 17.5%
- CCC(C)NC(=O)c1cc2c(=O)n(Cc3ccccc3)ccc2s1 (stereo not shown) [SN00797832] — lower, 11.3%
- COc1ccc(CNC(=O)c2cc3c(=O)n(Cc4ccccc4)ccc3s2)cc1 [SN00797837] — lower, 0.0%
- COc1cccc(CNC(=O)Cn2ccc3sccc3c2=O)c1 [SN00797886] — lower, 6.6%
- COc1ccccc1OCCNC(=O)Cn1ccc2c(c(C)nn2-c2ccccc2)c1=O [SN00797916] — lower, 27.1%
- CCS(=O)(=O)c1nc2ccc(NS(=O)(=O)c3ccc4c(c3)OCCO4)cc2s1 [SN00797922] — lower, 0.0%
- CCCS(=O)(=O)c1nc2ccc(NS(=O)(=O)CCc3ccccc3)cc2s1 [SN00797950] — lower, 20.2%
- COc1cccc(CNC(=O)C2CCCN(c3nccc4c(C)nn(C)c34)C2)c1 (stereo not shown) [SN00797953] — lower, 0.0%
- COc1cccc(Cn2nc3c(S(=O)(=O)N4CCOCC4)cccn3c2=O)c1 [SN00798018] — lower, 4.9%
- O=c1n(Cc2cccc(Br)c2)nc2c(S(=O)(=O)N3CCOCC3)cccn12 [SN00798020] — lower, 0.0%
- CCc1ccc(-n2ccc(=O)c(-c3nc(-c4cccc(Cl)c4)no3)n2)cc1 [SN00798039] — lower, 4.9%
- Cc1cccc(-c2cc(N3CCN(C(=O)c4cc(Cl)ccc4F)CC3)ncn2)c1 [SN00798065] — higher, 47.1%
- Cc1ccc(-c2noc(-c3cccn4c(=O)n(CC(=O)Nc5cc(C)ccc5C)nc34)n2)cc1 [SN00798102] — lower, 23.0%
- COc1ccc(-n2nnc(-c3nsc(Nc4ccc(Cl)cc4)n3)c2C)cc1 [SN00798137] — lower, 11.6%

Same assay, conditions: 48 h, re-assessment

Point of comparison: `COc1ccc(Cl)cc1NC(=O)Nc1ccc2c(c1)CN(Cc1ccccc1)C2` [SN00796317], “% Inhibition n=2 48h” value 17.4%. Against it:
- Cn1nc(-c2nnc(-c3ccccc3Cl)o2)c2c1CCN(C(=O)c1ccc(F)c(F)c1)C2 [SN00796834] — lower, 0.0%
